Measured values published in ChEMBL document CHEMBL3045706, “Synthesis of licochalcones and inhibition effects on radical-induced oxidation of DNA” (Med Chem Res, 2013).
Activity calls are given as the source filed them. The calls are words filed in the database; no cut-off is given here.

Key:
Type in all cases: functional
[1] = Antioxidant activity assessed as hydroxyl radical-induced DNA oxidation at 0.2 mM after 30 min by TBARS assay (reference value: 100%)
[2] = Inhibition of Cu2+/GSH-induced DNA oxidation at 0.2 mM by TBARS assay
[3] = Inhibition of AAPH-induced DNA oxidation by TBARS assay

| SMILES | Activity [1] | inhibition [2] | inhibition [3] |
| --- | --- | --- | --- |
| C=C(C)C(C)c1cc(/C=C/C(=O)c2ccc(O)cc2O)cc(OC)c1O (centres undefined) | 106% | Active | Active |
| C=C(C)C(C)c1cc(/C=C/C(=O)c2c(O)cc(O)cc2O)cc(OC)c1O (centres undefined) | 98.2% | Active | Active |
| C=C(C)C(C)c1cc(/C=C/C(=O)c2ccc(O)cc2)cc(OC)c1O (centres undefined) | 91.3% | Active | Active |
